For experiment [1], the target named is PDC-382 (Pseudomonas aeruginosa, UniProt P24735, T96I). Put plainly: biochemical. Also noted: species or system P. aeruginosa.
Experiment [2] has as its target Ear-1 (Klebsiella aerogenes, UniProt A0A0H3FRQ3). Put plainly: IC50 of β-lactamase inhibitors, crude extract, Ear-1. In kind it is biochemical.
Experiment [3] relates to E. coli TOP10. Set-up: method as in PMID 38727224. To be noted: inhibitor alone, previous study; cited from earlier work.
Experiment [4] deals with T1, PDC-5 (Pseudomonas aeruginosa, UniProt P24735, R79Q/T105A).
T1 construct: made in house; host or cells: E. coli TOP10, plasmid pUCp24
T1 sequence (P24735 27-397 R79Q/T105A): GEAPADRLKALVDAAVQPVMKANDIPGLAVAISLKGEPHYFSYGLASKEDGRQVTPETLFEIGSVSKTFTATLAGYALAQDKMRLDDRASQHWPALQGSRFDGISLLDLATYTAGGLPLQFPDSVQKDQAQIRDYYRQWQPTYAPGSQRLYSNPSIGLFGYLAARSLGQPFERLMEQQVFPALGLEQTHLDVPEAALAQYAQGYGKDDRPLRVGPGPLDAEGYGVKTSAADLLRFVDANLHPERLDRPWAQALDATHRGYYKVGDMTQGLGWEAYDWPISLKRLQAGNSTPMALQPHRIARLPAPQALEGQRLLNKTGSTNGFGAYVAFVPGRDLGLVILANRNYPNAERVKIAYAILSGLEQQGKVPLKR
Description: biochemical. Set-up: species or system P. aeruginosa.

In experiment [5] the target is LAT-1 (Citrobacter portucalensis, UniProt Q48443). Put plainly: biochemical.
LAT-1, sequence (Q48443 entry or part of it): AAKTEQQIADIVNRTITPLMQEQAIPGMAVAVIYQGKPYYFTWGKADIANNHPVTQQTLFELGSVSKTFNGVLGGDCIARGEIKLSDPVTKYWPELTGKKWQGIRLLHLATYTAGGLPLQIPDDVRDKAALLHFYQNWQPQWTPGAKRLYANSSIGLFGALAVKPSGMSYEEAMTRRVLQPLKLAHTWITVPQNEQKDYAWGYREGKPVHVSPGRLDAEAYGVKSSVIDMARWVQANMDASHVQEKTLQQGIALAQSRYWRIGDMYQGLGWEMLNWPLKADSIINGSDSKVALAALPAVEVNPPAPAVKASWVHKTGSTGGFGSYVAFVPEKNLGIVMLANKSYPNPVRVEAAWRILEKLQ
Experiment [6] addresses ACT-17 (Enterobacter asburiae, UniProt P05364). In kind it is biochemical. The note with it: crude extract of E. coli TOP10 recombinant strain, mean of triplicate.
Experiment [7] concerns the target MIR-17. Put plainly: IC50 of β-lactamase inhibitors, crude extract, MIR-17. In kind it is biochemical, Enterobacter roggenkampii. To be noted: crude extract of E. coli TOP10 recombinant strain, mean of triplicate.
The target of experiment [8] is YRC-1 (Yersinia ruckeri, UniProt Q20I87). Put plainly: IC50 of β-lactamase inhibitors, crude extract, YRC-1. In kind it is biochemical.
YRC-1, sequence (Q20I87 entry or part of it): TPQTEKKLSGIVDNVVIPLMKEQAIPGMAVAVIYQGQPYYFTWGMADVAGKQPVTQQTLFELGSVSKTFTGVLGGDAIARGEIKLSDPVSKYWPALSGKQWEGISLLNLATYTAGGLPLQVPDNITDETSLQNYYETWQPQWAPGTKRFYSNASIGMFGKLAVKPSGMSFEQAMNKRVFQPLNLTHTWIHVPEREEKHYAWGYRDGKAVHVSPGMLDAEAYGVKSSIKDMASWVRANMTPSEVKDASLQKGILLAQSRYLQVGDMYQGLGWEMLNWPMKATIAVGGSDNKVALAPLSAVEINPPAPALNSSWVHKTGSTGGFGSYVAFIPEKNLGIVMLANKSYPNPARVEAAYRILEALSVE
In experiment [9] the target is T2, CMY-42 (Klebsiella pneumoniae, UniProt Q48434, V231S).
T2 construct: made in house; host or cells: E. coli TOP10, plasmid pUCp24
T2 sequence (Q48434 21-381 V231S): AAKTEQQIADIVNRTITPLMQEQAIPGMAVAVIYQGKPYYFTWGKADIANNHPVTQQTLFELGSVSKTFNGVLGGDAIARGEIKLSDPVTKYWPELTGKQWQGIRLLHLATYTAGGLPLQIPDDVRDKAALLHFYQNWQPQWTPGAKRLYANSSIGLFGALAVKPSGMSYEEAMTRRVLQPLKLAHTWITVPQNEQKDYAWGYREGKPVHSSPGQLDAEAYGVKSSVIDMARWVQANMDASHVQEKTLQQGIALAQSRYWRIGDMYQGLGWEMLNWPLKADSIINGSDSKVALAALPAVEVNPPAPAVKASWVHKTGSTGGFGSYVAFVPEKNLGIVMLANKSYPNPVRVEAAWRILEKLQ
Put plainly: biochemical. Also noted: species or system Citrobacter spp.

In experiment [10] the target is ACT-7 (Enterobacter asburiae, UniProt B6V6L3). Description: biochemical.
Experiment [11] addresses ACC-1 (Hafnia alvei, UniProt Q9XB24). Description: IC50 of β-lactamase inhibitors, crude extract, ACC-1. Format: biochemical.
Experiment [12] has as its target ADC-50 (Acinetobacter baumannii, UniProt Q6DRA1). Description: IC50 of β-lactamase inhibitors, crude extract, ADC-50. In kind it is biochemical, A. baumannii. The note with it: ADC-50, crude extract of E. coli TOP10 recombinant strain, mean of triplicate.
Experiment [13] deals with FOX-5 (Aeromonas allosaccharophila, UniProt Q9F4K3). Description: IC50 of β-lactamase inhibitors, crude extract, FOX-5. Format: biochemical.
FOX-5, sequence (Q9F4K3 entry or part of it): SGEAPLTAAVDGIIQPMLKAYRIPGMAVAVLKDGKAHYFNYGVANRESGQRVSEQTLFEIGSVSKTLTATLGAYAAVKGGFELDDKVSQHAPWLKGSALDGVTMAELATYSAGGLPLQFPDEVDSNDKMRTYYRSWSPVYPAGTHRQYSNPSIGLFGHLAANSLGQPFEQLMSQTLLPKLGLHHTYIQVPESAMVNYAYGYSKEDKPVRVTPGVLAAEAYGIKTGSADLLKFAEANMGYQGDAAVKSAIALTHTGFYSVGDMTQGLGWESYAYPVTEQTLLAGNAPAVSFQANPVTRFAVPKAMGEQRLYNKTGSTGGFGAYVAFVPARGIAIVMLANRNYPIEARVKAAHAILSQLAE
Experiment [14] deals with T3, PDC-1 (Pseudomonas aeruginosa, UniProt P24735).
T3 construct: made in house; host or cells: E. coli TOP10, plasmid pUCp24
T3 sequence (P24735 27-397): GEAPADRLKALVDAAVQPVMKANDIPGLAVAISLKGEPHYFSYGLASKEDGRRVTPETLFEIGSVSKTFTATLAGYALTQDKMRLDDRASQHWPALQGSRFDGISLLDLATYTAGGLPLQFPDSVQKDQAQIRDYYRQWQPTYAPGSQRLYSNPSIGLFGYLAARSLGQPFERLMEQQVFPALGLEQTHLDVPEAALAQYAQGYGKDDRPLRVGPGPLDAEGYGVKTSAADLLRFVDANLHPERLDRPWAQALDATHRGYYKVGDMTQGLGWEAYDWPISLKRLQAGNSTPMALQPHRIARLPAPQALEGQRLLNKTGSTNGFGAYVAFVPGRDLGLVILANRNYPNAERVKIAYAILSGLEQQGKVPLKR
Put plainly: biochemical. Also noted: species or system P. aeruginosa.

Experiment [15] has as its target T4, CMY-2 (Klebsiella pneumoniae, UniProt Q48434).
T4 construct: made in house; host or cells: E. coli TOP10, plasmid pUCp24
Description: biochemical. Set-up: species or system Citrobacter spp.

Experiment [16] has as its target SRT-1 (Serratia marcescens, UniProt P18539). Description: IC50 of β-lactamase inhibitors, crude extract, SRT-1. Format: biochemical. The note with it: crude extract of E. coli TOP10 recombinant strain, mean of triplicate.
The target in experiment [17] is MOX-2 (Aeromonas caviae, UniProt Q9L3G2). Description: IC50 of β-lactamase inhibitors, crude extract, MOX-2. Format: biochemical.
MOX-2, sequence (Q9L3G2 entry or part of it): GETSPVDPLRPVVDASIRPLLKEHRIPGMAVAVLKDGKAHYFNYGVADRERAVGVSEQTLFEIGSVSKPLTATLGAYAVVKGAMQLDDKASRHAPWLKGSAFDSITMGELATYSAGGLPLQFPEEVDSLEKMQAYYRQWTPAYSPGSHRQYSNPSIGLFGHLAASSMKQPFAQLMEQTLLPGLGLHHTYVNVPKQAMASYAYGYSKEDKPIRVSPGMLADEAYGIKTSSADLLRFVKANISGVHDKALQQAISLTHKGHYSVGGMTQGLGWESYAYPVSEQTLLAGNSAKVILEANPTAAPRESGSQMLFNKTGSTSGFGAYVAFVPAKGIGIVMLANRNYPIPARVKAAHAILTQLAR
Experiment [18] concerns the target DHA-1 (Morganella morganii, UniProt P94958). Put plainly: IC50 of β-lactamase inhibitors, crude extract, DHA-1. Format: biochemical.

pIC50: −log10 of the molar value.

These results are taken from publication PMC11539244, “Relative inhibitory activities of newly developed diazabicyclooctanes, boronic acid derivatives, and penicillin-based sulfone β-lactamase inhibitors against broad-spectrum AmpC β-lactamases” (Antimicrobial Agents and Chemotherapy, 2024).

T4 sequence (Q48434 21-381): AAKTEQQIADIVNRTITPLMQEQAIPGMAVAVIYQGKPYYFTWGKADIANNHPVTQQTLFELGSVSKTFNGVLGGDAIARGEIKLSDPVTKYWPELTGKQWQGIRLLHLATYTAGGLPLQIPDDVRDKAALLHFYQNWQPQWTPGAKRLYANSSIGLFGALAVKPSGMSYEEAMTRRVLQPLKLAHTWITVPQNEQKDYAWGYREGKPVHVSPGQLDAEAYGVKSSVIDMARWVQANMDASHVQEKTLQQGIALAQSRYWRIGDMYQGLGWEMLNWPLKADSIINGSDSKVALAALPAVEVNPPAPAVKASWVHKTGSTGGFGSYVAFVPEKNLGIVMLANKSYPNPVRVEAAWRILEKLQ
PDC-382, sequence (P24735 27-397 T96I): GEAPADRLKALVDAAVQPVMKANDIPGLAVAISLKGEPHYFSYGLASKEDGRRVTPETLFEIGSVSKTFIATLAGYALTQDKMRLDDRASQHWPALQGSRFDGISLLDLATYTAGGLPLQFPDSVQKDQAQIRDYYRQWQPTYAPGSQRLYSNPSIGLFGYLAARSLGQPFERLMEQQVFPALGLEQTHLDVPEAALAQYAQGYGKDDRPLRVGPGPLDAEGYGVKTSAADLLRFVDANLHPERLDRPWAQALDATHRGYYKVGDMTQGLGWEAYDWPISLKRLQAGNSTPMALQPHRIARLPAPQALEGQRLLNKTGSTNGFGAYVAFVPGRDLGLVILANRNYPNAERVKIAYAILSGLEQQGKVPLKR
SRT-1, sequence (P18539 22-376): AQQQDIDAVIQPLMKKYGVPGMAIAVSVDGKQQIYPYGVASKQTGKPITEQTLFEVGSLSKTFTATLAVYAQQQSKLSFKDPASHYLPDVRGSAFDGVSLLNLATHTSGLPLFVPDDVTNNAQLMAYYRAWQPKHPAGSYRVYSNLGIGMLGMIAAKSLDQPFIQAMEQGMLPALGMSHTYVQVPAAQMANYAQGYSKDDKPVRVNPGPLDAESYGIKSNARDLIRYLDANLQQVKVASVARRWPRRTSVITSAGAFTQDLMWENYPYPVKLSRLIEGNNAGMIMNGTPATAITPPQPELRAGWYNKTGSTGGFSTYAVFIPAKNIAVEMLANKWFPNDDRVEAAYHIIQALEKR
ACC-1, sequence (Q9XB24 entry or part of it): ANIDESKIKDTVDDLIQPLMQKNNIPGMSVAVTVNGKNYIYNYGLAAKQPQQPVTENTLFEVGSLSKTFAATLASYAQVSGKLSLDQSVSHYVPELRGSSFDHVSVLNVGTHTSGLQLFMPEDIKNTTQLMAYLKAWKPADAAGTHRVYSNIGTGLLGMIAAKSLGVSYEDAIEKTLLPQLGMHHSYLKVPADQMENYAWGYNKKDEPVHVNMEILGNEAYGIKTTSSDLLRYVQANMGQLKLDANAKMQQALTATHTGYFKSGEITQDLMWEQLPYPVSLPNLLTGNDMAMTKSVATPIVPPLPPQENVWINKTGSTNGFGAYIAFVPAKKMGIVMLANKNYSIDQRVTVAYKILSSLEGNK
ACT-17, sequence (P05364 21-381): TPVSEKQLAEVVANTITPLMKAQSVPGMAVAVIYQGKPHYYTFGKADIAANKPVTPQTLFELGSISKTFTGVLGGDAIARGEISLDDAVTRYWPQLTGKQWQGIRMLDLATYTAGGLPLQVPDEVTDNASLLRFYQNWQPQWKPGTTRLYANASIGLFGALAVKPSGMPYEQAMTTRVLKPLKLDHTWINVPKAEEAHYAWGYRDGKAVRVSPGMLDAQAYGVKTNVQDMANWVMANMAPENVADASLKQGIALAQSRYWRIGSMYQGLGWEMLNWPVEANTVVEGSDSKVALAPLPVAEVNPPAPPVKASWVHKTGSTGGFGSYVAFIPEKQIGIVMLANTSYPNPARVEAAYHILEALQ
Ear-1, sequence (A0A0H3FRQ3 entry or part of it): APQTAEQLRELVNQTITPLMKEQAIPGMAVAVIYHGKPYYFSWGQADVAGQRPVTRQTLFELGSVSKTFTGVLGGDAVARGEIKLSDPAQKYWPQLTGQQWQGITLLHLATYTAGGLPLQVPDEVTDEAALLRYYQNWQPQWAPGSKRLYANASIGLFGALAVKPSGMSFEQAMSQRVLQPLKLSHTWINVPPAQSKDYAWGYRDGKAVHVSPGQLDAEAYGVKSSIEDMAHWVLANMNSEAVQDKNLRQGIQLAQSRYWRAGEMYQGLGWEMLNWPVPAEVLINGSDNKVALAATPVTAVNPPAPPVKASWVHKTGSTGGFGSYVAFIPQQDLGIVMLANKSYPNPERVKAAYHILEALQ

As for `O=C(O)c1c(F)ccc2c1OB(O)[C@@H]1C[C@H]21` [Xeruborbactam, xeruborbactam], the pIC50 – broadly, −log10 of the IC50, conventionally taken in molar units – is 6.49 in experiment [1]; 6.66 in [2]; 6.18 in experiment [4]; 6.47 in experiment [5]; 6.70 in experiment [6]; 6.51 in experiment [7]. Further, the pIC50 in experiment [8] was 6.02; in experiment [9] it was 6.37; in experiment [10], 6.54; in experiment [11], 7.05; in experiment [12] it was 5.27; in experiment [12] (listed as XER) it was 5.30. In addition, the pIC50 in experiment [13] is 6.64; in experiment [14], 6.17; in experiment [15] it was 6.55; in [16], 6.66; in experiment [17], 6.59; in experiment [18], 6.80. Also, the “MIC value of XER alone” value in experiment [3] is “above 16 µg/mL”.
